Earlier results in patent US20100004582A1, “Wide-Area Parasystemic Treatment of Skin Related Conditions” (PANTEC BIOSOLUTIONS AG, priority 2006, published 2010).

System: psoriasis
Settings: conventional efalizumab treatment, not via porated skin

efalizumab
patients in whom treatment attenuated the disease: 22-28 % of patients
